# Data reported in patent US8729087B2, “Compositions and methods for inhibition of the JAK pathway” (Rigel Pharmaceuticals, Inc., priority 2006, dated 2014).
# pIC50: −log10 of the molar value. Read-outs that look alike come from different tables or passages of the source.
# Tests used:
# [1] = tested on: Ramos B-cell line stimulated with IL-4; assay: Assay for Ramos B-Cell Line Stimulated with IL-4 (CD23 upregulation, FACS); format: cell-based, human; conditions: IL-4 50 units/mL, 20-24 hours, anti-CD23-PE staining, FACS, read-out: Example 2 (IC50, Ramos B-cell line stimulated with IL-4)
# Description: One means of assaying for such inhibition is detection of the effect of the 2,4-pyrimidinediamine compounds on the upregulation of downstream gene products. In the Ramos/IL4 assay, B-cells are stimulated with the cytokine Interleukin-4 (IL-4) leading to the activation of the JAK/Stat pathway through phosphorylation of the JAK family kinases, JAK1 and JAK3, which in turn phosphorylate and activate the transcription factor Stat-6. […] To study the effect of inhibitors (e.g., the 2,4-substituted pyrimindinediamine compounds described herein) on the JAK1 and JAK3 kinases, human Ramos B cells are stimulated with human IL-4. Twenty to 24 hours post stimulation, cells are stained for upregulation of CD23 and analyzed using flow cytometry (FACS). […] An exemplary assay of this type is described in greater detail in Example 2.
# B-cells stimulated with cytokine Interleukin-4 (IL-4) activate the JAK/Stat pathway through phosphorylation of the JAK family kinases, JAK-1 and JAK-3, which in turn phosphorylate and activate the transcription factor Stat-6. […] To study the effect of inhibitors on the JAK family kinases, human Ramos B cells are stimulated with human IL-4.
# The Ramos B-cell line was acquired from ATCC (ATCC Catalog No. CRL-1596). The cells were cultured in RPMI 1640 (Cellgro, MediaTech, Inc., Herndon, Va., Cat No. 10-040-CM) with 10% fetal bovine serum (FBS), heat inactivated (JRH Biosciences, Inc, Lenexa, Kans., Cat No. 12106-500M) according to ATCC propagation protocol. Cells were maintained at a density of 3.5×10^5. The day before the experiment, Ramos B-cells were diluted to 3.5×10^5 cells/mL to ensure that they were in a logarithmic growth phase.
# Cells were spun down and suspended in RPMI with 5% serum. 5×10^4 cells were used per point in a 96-well tissue culture plate. Cells were pre-incubated with compound or DMSO (Sigma-Aldrich, St. Louis, Mo., Cat No. D2650) vehicle control for 1 hour in a 37° C. incubator.
# Cells were then stimulated with IL-4 (Peprotech Inc., Rocky Hill, N.J., Cat No. 200-04) for a final concentration of 50 units/mL for 20-24 hours. Cells were then spun down and stained with anti-CD23-PE (BD Pharmingen, San Diego, Calif., Cat No. 555711) and analyzed by FACS. Detection was performed using a BD LSR I System Flow Cytometer, purchased from Becton Dickinson Biosciences of San Jose, Calif.
# Primary human T-cells = assay: Primary Human T-Cell Proliferation Assay Stimulated with IL-2 (CellTiter-Glo); format: cell-based; conditions: IL-2, 72 hours, ATP quantitation (CellTiter-Glo), read-out: Example 3 (IC50, primary human T-cell proliferation stimulated with IL-2)
# Description: The activity of the active compounds of the invention may further be characterized by assaying the effect of the 2,4-pyrimidinediamine compounds described herein on the proliferative response of primary human T-cells. In this assay, primary human T-cells derived from peripheral blood and pre-activated through stimulation of the T-cell receptor and CD28, proliferate in culture in response to the cytokine Interleukin-2 (IL-2). This proliferative response is dependent on the activation of JAK1 and JAK3 tyrosine kinases, which phosphorylate and activate the transcription factor Stat-5. The primary human T-cells are incubated with the 2,4-pyrimidinediamine compounds in the presence of IL-2 for 72 hours and at the assay endpoint intracellular ATP concentrations are measured to assess cell viability. A reduction in cell proliferation compared to control conditions is indicative of inhibition of the JAK kinase pathway. An exemplary assay of this type is described in greater detail in Example 3.
# Primary human T-cells derived from peripheral blood and pre-activated through stimulation of the T-cell receptor and CD28, proliferate in vitro in response to the cytokine Interleukin-2 (IL-2). This proliferative response is dependent on the activation of JAK-1 and JAK-3 tyrosine kinases, which phosphorylate and activate the transcription factor Stat-5.
# Human primary T cells were prepared as follows. Whole blood was obtained from a healthy volunteer, mixed 1:1 with PBS, layered on to Ficoll Hypaque (Amersham Pharmacia Biotech, Piscataway, N.J., Catalog #17-1440-03) in 2:1 blood/PBS:ficoll ratio and centrifuged for 30 min at 4° C. at 1750 rpm. The lymphocytes at the serum: ficoll interface were recovered and washed twice with 5 volumes of PBS. The cells were resuspended in Yssel's medium (Gemini Bio-products, Woodland, Calif., Catalog #400-103) containing 40 U/mL recombinant IL2 (R and D Systems, Minneapolis, Minn., Catalog #202-IL (20 μg)) and seeded into a flask pre-coated with 1 μg/mL anti-CD3 (BD Pharmingen, San Diego, Calif., Catalog #555336) and […] (Immunotech, Beckman Coulter of Brea Calif., Catalog #IM1376). The primary T-cells were stimulated for 3-4 days, then transferred to a fresh flask and maintained in RPMI with 10% FBS and 40 U/mL IL-2.
# Primary T-cells were washed twice with PBS to remove the IL-2 and resuspended in Yssel's medium at 2×10^6 cells/mL. 50 μL of cell suspension containing 80 U/mL IL-2 was added to each well of a flat bottom 96 well black plate. For the unstimulated control, IL-2 was omitted from the last column on the plate. Compounds were serially diluted in dimethyl sulfoxide (DMSO, 99.7% pure, cell culture tested, Sigma-Aldrich, St. Louis, Mo., Catalog No. D2650) from 5 mM in 3-fold dilutions, and then diluted 1:250 in Yssel's medium. 50 μL of 2× compound was added per well in duplicate and the cells were allowed to proliferate for 72 hours at 37° C.
# Proliferation was measured using CellTiter-Glo® Luminescent Cell Viability Assay (Promega), which determines the number of viable cells in culture based on quantitation of the ATP present, as an indicator of metabolically active cells. The substrate was thawed and allowed to come to room temperature. After mixing the Cell Titer-Glo reagent and diluent together, 100 μL was added to each well. The plates were mixed on an orbital shaker for two minutes to induce lysis and incubated at room temperature for an additional ten minutes to allow the signal to equilibrate. Detection was performed using a Wallac Victor2 1420 multilabel counter purchased from Perkin Elmer, Shelton, Conn.
Compound,"pIC50 ([1]; Homo sapiens, Ramos)","pIC50 (Primary human T-cells; Homo sapiens, T-cell, 72 h)",pIC50 [1],pIC50 (Primary human T-cells)
"Cc1cnc(Nc2cccc(S(N)(=O)=O)c2)nc1Nc1ccc2c(c1)C(NS(C)(=O)=O)CC2 (racemic) [VI-1, (+/−)-N2-(3-Aminosulfonylphenyl)-5-methyl-N4-[1-(methylsulfonyl)aminoindan-6-yl]-2,4-pyrimidinediamine]",6.51,–,–,–
"C#CCOc1ccc(Nc2nc(Nc3cccc(CS(N)(=O)=O)c3)ncc2F)cc1 [Compound I-3, N2-(3-Aminosulfonylmethylphenyl)-5-fluoro-N4-[4-(prop-2-ynyloxy)phenyl]-2,4-pyrimidinediamine]",7.03,6.11,–,–
"CCCN(Cc1ccc(Nc2nc(Nc3ccc(CS(=O)(=O)NC)cc3)ncc2F)cc1)S(=O)(=O)CC [Compound I-9, N4-[4-(N-ethylsulfonyl-N-propyl)aminomethyl]phenyl-5-fluoro-N2-(4-methylaminosulfonylmethyl)phenyl-2,4-pyrimidinediamine]",–,–,6.65,5.86
"CCS(=O)(=O)NCc1cccc(Nc2nc(Nc3ccc(CS(=O)(=O)NC)cc3)ncc2F)c1 [Compound I-12, N4-(3-ethylsulfonylaminomethyl)phenyl-5-fluoro-N2-(4-methylaminosulfonylmethyl)phenyl-2,4-pyrimidinediamine]",–,–,6.50,5.86
"C#CCOC(=O)NCc1ccc(Nc2nc(Nc3cccc(CS(N)(=O)=O)c3)ncc2F)cc1 [Compound I-14, N2-(3-Aminosulfonylmethylphenyl)-5-fluoro-N4-{4-[(prop-2-ynyloxy)carbonylaminomethyl]phenyl}-2,4-pyrimidinediamine]",6.45,–,–,–
"CCS(=O)(=O)NCCc1ccc(Nc2nc(Nc3ccc(CS(=O)(=O)NC)cc3)ncc2F)cc1 [Compound I-15, N4-[4-(2-ethylsulfonylamino)ethyl]phenyl-5-fluoro-N2-(4-methylaminosulfonylmethyl)phenyl-2,4-pyrimidinediamine]",–,–,6.42,–
"Cn1nccc1NC(=O)Cc1cccc(Nc2nc(Nc3cccc(CS(N)(=O)=O)c3)ncc2F)c1 [Compound I-20, N2-[3-(Aminosulfonylmethylene)phenyl]-5-fluoro-N4-[(1-methylpyrazolyl-5-aminocarbonylmethylene)phenyl]-5-fluoro-2,4-pyrimidinediamine]",–,–,5.94,–
"CN1CCC(NS(=O)(=O)C=C2C=CC=C(Nc3nc(NC4=CC=CC(=CS(N)(=O)=O)C4)ncc3F)C2)CC1 [Compound I-21, N2-[3-(Aminosulfonylmethylene)phenyl]-5-fluoro-N4-[3-(1-methylpiperidin-4-ylaminosulfonylmethylene)phenyl]-2,4-pyrimidinediamine]",5.59,–,–,–
"NS(=O)(=O)c1ccc(Nc2ncc(F)c(Nc3cc4c(cc3F)CS(=O)(=O)N4)n2)cc1 [Compound V-1, N2-(4-aminosulfonyl)phenyl-5-fluoro-N4-(2,2-dioxo-5-fluoro-1,3-dihydrobenzo[c]isothiazol-6-yl)-2,4-pyrimidinediamine]",4.91,–,–,–
"NS(=O)(=O)c1cccc(Nc2ncc(F)c(Nc3cc4c(cc3F)CS(=O)(=O)N4)n2)c1 [Compound V-2, N2-(3-aminosulfonyl)phenyl-5-fluoro-N4-(2,2-dioxo-5-fluoro-1,3-dihydrobenzo[c]isothiazol-6-yl)-2,4-pyrimidinediamine]",4.83,4.62,–,–
"Cc1ccc(Nc2ncc(F)c(Nc3cc4c(cc3F)CS(=O)(=O)N4)n2)cc1S(N)(=O)=O [Compound V-3, N2-(3-aminosulfonyl-4-methyl)phenyl-5-fluoro-N4-(2,2-dioxo-5-fluoro-1,3-dihydrobenzo[c]isothiazol-6-yl)-2,4-pyrimidinediamine]",4.89,–,–,–
"CC1(C)Oc2ccc(Nc3nc(Nc4ccc5c(c4)NS(=O)(=O)CO5)ncc3F)nc2NC1=O [Compound V-4, N4-[2,2-dimethyl-3-oxo-4H-pyrid[1,4]oxazin-7-yl]-N2-[3,3-dioxo-1H-benzo[e][1,3,4]oxathiazin-7-yl]-5-fluoro-2,4-pyrimidinediamine]",6.10,5.76,–,–
Cc1cnc(Nc2cccc(CNS(=O)(=O)C3CC3)c2)nc1Nc1ccc2c(n1)CCC(=O)O2 [Compound V-5],6.41,–,–,–
"Cc1cnc(Nc2ccc(CNS(=O)(=O)c3cccnc3)cc2)nc1Nc1ccc(CNS(=O)(=O)c2cccnc2)cc1 [II-3, N2,N4-bis[4-(pyrid-3-yl)sulfonylaminomethyl]phenyl-5-methyl-2,4-pyrimidinediamine]",–,–,6.49,–
"O=S(=O)(NCc1ccc(Nc2ncc(C(F)(F)F)c(Nc3ccc(CNS(=O)(=O)C4CC4)cc3)n2)cc1)C1CC1 [II-4, N2,N4-bis(4-cyclopropylsulfonylaminomethyl)phenyl-5-trifluoromethyl-2,4-pyrimidinediamine]",–,–,6.87,6.37
"CC1(C)Oc2ccc(Nc3nc(Nc4ccc5c(c4)CN(S(N)(=O)=O)CC5)ncc3F)nc2NC1=O [III-3, N2-(2-Aminosulfonyl-1,2,3,4-tetrahydroisoquinolin-7-yl)-N4-(2,2-dimethyl-3-oxo-4H-5-pyrid[1,4]oxazin-6-yl)-5-fluoro-2,4-pyrimidinediamine]",–,–,7.14,6.57
"C#CCn1ccc2cc(Nc3nc(Nc4cccc(CS(N)(=O)=O)c4)ncc3F)ccc21 [IV-3, N2-(3-Aminosulfonylmethylphenyl)-5-fluoro-N4-[1-(propyn-3-yl)indol-5-yl]-2,4-pyrimidinediamine]",6.67,5.70,–,–
"N2-(3-Aminosulfonylmethylenephenyl)-5-fluoro-N4-[2-(2-N-morpholinoethylaminoacrbonyl)benzofuran-5-yl]-2,4-pyrimidinediamine [IV-5]",–,–,5.52,–
